Patent US8110596B2, “Triprenyl phenol compound, process for production of triprenyl phenol compound, and thrombolysis enhancer” (Tokyo University of Agriculture and Technology TLO Co., Ltd., priority 2006, dated 2012)

Legend:
plasminogen [1] = target: T1, plasminogen (Homo sapiens, UniProt P00747); experiment: Measurement of plasminogen activation by urokinase catalysis, VLK-pNA hydrolysis (Example 5); format: biochemical; details: 50 μM, 100 μM and 200 μM, 37° C., 60 minutes
Procedure: (§1) The fibrinolysis enhancing activity of SMTP-0 (50 μM, 100 μM and 200 μM) obtained in Example 2 was evaluated as follows, as the activity for promoting the plasminogen activation by urokinase catalysis.
(§2) A 30 mM solution of SMTP (DMSO solution) was diluted with TBS/T (50 mM Tris-HCl, 100 mM NaCl and 0.01% Tween80, pH 7.4) to prepare a 1.5 mM solution (in 5% DMSO·TBS/T). This solution was diluted with 5% DMSO in TBS/T to prepare SMTP solutions at the concentrations mentioned above.
(2) Measurement of Plasminogen Activation
10 μl of an SMTP solution (10 μl) was mixed with 40 μl of a reaction liquid at a 1.25-fold concentration (0.0625 μM of plasminogen, 62.5 U/ml of urokinase, and 0.125 mM of VLK-pNA) in a 96-well microplate, and measurement was made by immediately monitoring the absorption of the hydrolysis of VLK-pNA at 405 nm over time with a microplate reader. The measurement was performed at 37° C. for 60 minutes at an interval of 2 minutes.

plasminogen [2] = target: T1, plasminogen; experiment: Measurement of activity of plasminogen fragment production (Example 5); format: biochemical; details: 50 μM, 100 μM and 200 μM; 60 minutes at 37° C., SDS polyacrylamide gel electrophoresis
Procedure: as §1, §2
(1) Measurement of Activity of Plasminogen Fragment Production
An SMTP solution (60 μl) was mixed with 240 μl of a reaction liquid at a 1.25-fold concentration (not containing VLK-pNA (Val-Leu-Lys-p-nitroanilide)), and the mixture was allowed to react for 60 minutes at 37° C. Then, 75 μl of 50% trichloroacetic acid (TCA) was added to terminate the reaction, and the mixture was left to stand in ice for 60 minutes. TCA-insoluble materials were precipitated by centrifugation, and the precipitate was washed two times with acetone. The obtained precipitate was dried, and then dissolved with 11 μl of added SDS sample buffer (0.125 M Tris-Cl, pH 6.8, 4% SDS, 20% glycerol and 0.02% bromophenol blue). 10 μl of the solution was used to perform SDS polyacrylamide gel electrophoresis (10% gel).

T1 sequence (P00747 20-810 limits assumed, species assumed): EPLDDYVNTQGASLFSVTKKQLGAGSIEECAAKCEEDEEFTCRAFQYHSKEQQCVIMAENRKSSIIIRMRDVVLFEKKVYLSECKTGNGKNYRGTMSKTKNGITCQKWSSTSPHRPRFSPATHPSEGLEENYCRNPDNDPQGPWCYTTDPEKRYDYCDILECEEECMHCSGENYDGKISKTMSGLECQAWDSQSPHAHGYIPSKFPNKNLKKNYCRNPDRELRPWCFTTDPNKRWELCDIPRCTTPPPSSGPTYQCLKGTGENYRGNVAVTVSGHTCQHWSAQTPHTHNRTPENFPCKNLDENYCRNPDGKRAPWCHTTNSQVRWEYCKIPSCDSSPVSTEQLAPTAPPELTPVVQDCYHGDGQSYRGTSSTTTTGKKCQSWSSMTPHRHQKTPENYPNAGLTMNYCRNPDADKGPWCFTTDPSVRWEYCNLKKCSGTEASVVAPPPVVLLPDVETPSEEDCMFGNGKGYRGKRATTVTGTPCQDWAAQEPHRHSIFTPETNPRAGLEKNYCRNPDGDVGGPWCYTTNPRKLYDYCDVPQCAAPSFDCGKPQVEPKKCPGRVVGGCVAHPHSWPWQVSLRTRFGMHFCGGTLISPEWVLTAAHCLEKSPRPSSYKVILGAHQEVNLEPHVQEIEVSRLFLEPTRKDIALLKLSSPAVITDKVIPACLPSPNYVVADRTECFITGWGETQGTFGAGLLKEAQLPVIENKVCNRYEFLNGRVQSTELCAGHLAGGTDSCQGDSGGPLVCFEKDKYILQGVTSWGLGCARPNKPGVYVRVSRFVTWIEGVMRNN

action of enhancing the plasminogen activation (plasminogen [1]): did not indicate any action
action on the generation of plasminogen fragments having the angiogenesis inhibitory activity (plasminogen [2]): did not exhibit any action
Compound: CC(C)=CCC/C(C)=C/CC[C@]1(C)Oc2c(c(O)cc3c2CNC3=O)C[C@@H]1O [SMTP-0]
